Measured values reported in patent publication US20100197602A1, “USE OF FOLLICULAR GONADOTROPIN RELEASING PEPTIDE AS A THERAPEUTIC AGENT IN THE TREATMENT OF STREPTOCOCCUS PNEUMONIAE INFECTION” (priority 2007, published 2010).
Residues, ends and D or L forms follow the SMILES beside them.

System: drug-resistant Mycobacterium tuberculosis
Conditions: drug-resistant Mycobacterium tuberculosis (PAS, streptomycin, INH); peptide 10 micrograms per ml; seven days

C[C@@H](O)[C@H](N)C(=O)N[C@@H](CC(=O)O)C(=O)N[C@H](C(=O)N[C@@H](CO)C(=O)N[C@@H](Cc1c[nH]cn1)C(=O)N[C@@H](Cc1c[nH]cn1)C(=O)N[C@@H](CC(=O)O)C(=O)N[C@@H](CCC(N)=O)C(=O)N[C@@H](CC(=O)O)C(=O)N[C@@H](Cc1c[nH]cn1)C(=O)N1CCC[C@H]1C(=O)N[C@H](C(=O)N[C@@H](Cc1ccccc1)C(=O)N[C@@H](CC(N)=O)C(=O)O)[C@@H](C)O)[C@@H](C)O [FGRP, Thr-Asp-Thr-Ser-His-His-Asp-Gln-Asp-His-Pro-Thr-Phe-Asn-OH] (H-TDTSHHDQDHPTFN-OH)
% inhibition: 0.0%
